How the values were obtained:
[1] = tested on: murine lymphocyte leukaemia L1210 (ATCC CCL-219); assay: XTT proliferation test, L1210; format: cell-based; conditions: L-1210, eight substance concentrations
Method: (§1) In a proliferation test, the antiproliferative activity of the substance D-69429 was examined using established tumor cell lines. In the test used, the cellular dehydrogenation activity is determined, which makes it possible to determine the vitality of the cell and, indirectly, the cell count. The cell lines used are the human cervical carcinoma cell line KB/HeLa (ATCC CCL17), the murine lymphocyte a leukaemia L1210 (ATCC CCL-219), the human breast adenocarcinoma line MCF7 (ATCC HTB22) and the ovary adenocarcinoma line SKOV-3 (ATCC HTB77). These are established cell lines which are very well characterized and were obtained from ATCC and cultured.
(§2) The adherently growing tumor cell lines HeLa/KB, SKOV-3 and MCF7 and the L1210 leukaemia line, which grows in suspension, were cultivated under standard conditions in an incubator with gas inlet at 37° C., 5% CO2 and 95% atmospheric humidity. […]
(§3) For the XTT assay, 1 mg/ml of XTT (sodium 3′-[1-(phenylaminocarbonyl)-3,4-tetrazolium]-bis(4-methoxy-6-nitro)benzenesulfonic acid) is dissolved in RPMI-1640 medium without Phenol Red. […] The cell plates are then incubated in the incubator with gas inlet for a further 3 h, and the optical density (OD490nm) is determined in a photometer.
(§4) Using the OD490nm obtained, the inhibition in percent relative to the control is calculated. […]

[2] = tested on: ovary adenocarcinoma line SKOV-3 (ATCC HTB77); assay: XTT proliferation test, SKOV-3; format: cell-based, human; conditions: SKOV-3, eight substance concentrations
Method: as §1, §2, §3, §4

[3] = tested on: human cervical carcinoma cell line KB/HeLa (ATCC CCL17); assay: XTT proliferation test, KB/HeLa; format: cell-based; conditions: eight substance concentrations
Method: as §1, §2, §3, §4

[4] = tested on: human breast adenocarcinoma line MCF7 (ATCC HTB22); assay: XTT proliferation test, MCF7; format: cell-based
Method: as §1, §2, §3, §4

Structure (SMILES): Cc1ccc2cc(NC(=O)C(=O)c3cn(Cc4ccc(Cl)cc4)c4ccccc34)ccc2n1 [Example D-69429, N-(2-methyl-6-quinolyl)-[1-(4-chlorobenzyl)indole-3-yl]glyoxylamide]
- antiproliferative action [1]: highly potent antiproliferative action
- antiproliferative action [2]: highly potent antiproliferative action
- antiproliferative action [3]: highly potent antiproliferative action
- inhibition at 3.16 µg/mL ([4]; MCF7, at 3.16 μg/ml, test period 48 h): 18%
- IC50 ([4]; MCF7, test period 48 h, regression analysis, read-out: antiproliferative activity (stated as >3.16)): > 3.16 µg/mL
- melting point: 182 to 185 °C

— patent publication US8008324B2, “Indole derivatives and their use as medicament” (AEterna Zentaris GmbH, priority 2000, dated 2011)
